Experiments:
Hep3B cells = test: In vitro cell proliferation assay of Hep3B cell line, compound A with other anticancer agents (Example 6B); type: cell-based, human; conditions: agent in combination with compound A; 3, 4 or 6 days
Experimental: Cell culture/Growth Inhibition Assay: Human hepatocelluar carcinoma Hep3B cells were obtained from ATCC (Manassas, Va.). Hep3B cells were maintained in EMEM supplemented with 10% fetal bovine serum, penicillin (100 U/ml), and streptomycin (100 μg/ml). Cells were maintained at 37° C., 5% CO2, and 100% humidity. For cell proliferation experiments, cells were plated in white 96-well plates with clear bases at either 3000 cells/100 μl/well, 2000 cells/100 μl/well or 1000 cells/100 μl/well and treated as follows for 3 days, 4 days, or 6 days respectively. […] Following incubation for the indicated time at 37° C., ATP levels were determined using CellTiterGlo (Promega, Madison, Wis.) and reading luminescence values using a Lit Biosystems Analyst HT (Sunnyvale, Calif.). The ATP level for each dose combination was determined in triplicate using independent wells, and the experiment was performed several times. […] For comparison, the dose response for each single agent was also determined. The relative cell proliferation number was determined with the following formula: […]

Hep3B Hepatoma cells = test: In vitro cell proliferation assay of Hep3B cell line (CellTiterGlo ATP levels); type: cell-based, human; conditions: sorafenib alone
Experimental: The effect of compound A in combination with sorafenib was examined in a cell line derived from a human hepatocellular carcinoma in a cell proliferation assay.
Cell culture/Growth Inhibition Assay: Human hepatocelluar carcinoma Hep3B cells were obtained from ATCC (Manassas, Va.). Hep3B cells were maintained in EMEM supplemented with 10% fetal bovine serum, penicillin (100 U/ml), and streptomycin (100 μg/ml). Cells were maintained at 37° C., 5% CO2, and 100% humidity. For cell proliferation experiments, cells were plated in white 96-well plates with clear bases at either 3000 cells/100 μl/well, 2000 cells/100 μl/well or 1000 cells/100 μl/well and treated as follows for 3 days, 4 days, or 6 days respectively. After 24 hr, cell media was removed and replaced with media containing combinations of compound A of formula I and sorafenib. Following incubation for the indicated time at 37° C., ATP levels were determined using CellTiterGlo (Promega, Madison, Wis.) and reading luminescence values using a LJL Biosystems Analyst FIT (Sunnyvale, Calif.). The ATP level for each dose combination was determined in triplicate using independent wells, and the experiment was performed several times. […] For comparison, the dose response for each single agent was also determined. The relative cell proliferation number was determined with the following formula: […]

[1] = system: human gastric adenocarcinoma cell line AGS; test: In vitro cell proliferative activity of AGS cell line (CellTiterGlo ATP levels); type: cell-based
Experimental: The effect of compound A in combination with sorafenib was examined in a cell line derived from a human gastric adenocarcinoma, in a cell proliferation assay.
Cell culture/Growth Inhibition Assay: The human gastric adenocarcinoma cell line AGS was obtained from ATCC (Manassas, Va.). AGS cells were maintained in DMEM/F12 supplemented with 10% fetal bovine serum, penicillin (100 U/ml), and streptomycin (100 μg/ml). Cells were maintained at 37° C., 5% CO2, and 100% humidity. For cell proliferation experiments, cells were plated in white 96-well plates with clear bases at 3000 cells/100 μl/well. After 24 hr, cell media was removed and replaced with media containing combinations of 621119 and sorafenib. Following incubation for 48 hours at 37° C., ATP levels were determined using CellTiterGlo (Promega, Madison, Wis.) and reading luminescence values using a LJL Biosystems Analyst HT (Sunnyvale, Calif.). The ATP level for each dose combination was determined in triplicate using independent wells, and the experiment was performed several times. For synergy experiments, either 621119 or sorafenib was dosed at a fixed, subefficacious dose, while the second agent (sorafenib or 621119 respectively) was added across a range of doses. For comparison, the dose response for each single agent was also determined. The relative cell proliferation number was determined with the following formula: […]

SMILES	synergy with compound A in cell proliferation (Hep3B cells)	further results
Nc1ccn([C@@H]2O[C@H](CO)[C@@H](O)C2(F)F)c(=O)n1 [Gemcitabine]	no synergy	
O=C(CCCCCCC(=O)Nc1ccccc1)NO [Vorinostat]	no synergy	
CNC(=O)c1cc(Oc2ccc(NC(=O)Nc3ccc(Cl)c(C(F)(F)F)c3)cc2)ccn1 [sorafenib, 4-[4-[[4-chloro-3-(trifluoromethyl)phenyl]carbamoylamino]phenoxy]-N-methyl-pyridine-2-carboxamide]		inhibition of cell proliferation (Hep3B Hepatoma cells; 2 μM and lower, after 4 days (FIG. 8C)): little or no inhibition; inhibition of cell proliferation (Hep3B Hepatoma cells; 5 μM and lower, after 3 days (FIG. 8A)): little activity; inhibition of cell proliferation (cell number relative to vehicle) ([1]; sorafenib alone at 5 uM, after 48 hours (FIG. 9B)): little activity; inhibition of cell proliferation (relative cell number) ([1]; sorafenib alone, 5 uM and lower, after 48 hours (FIG. 9A)): little activity
CS(=O)(=O)CCNCc1ccc(-c2ccc3ncnc(Nc4ccc(OCc5cccc(F)c5)c(Cl)c4)c3c2)o1 [Lapatinib]	no synergy	
Cc1ccc(NC(=O)c2ccc(CN3CCN(C)CC3)cc2)cc1Nc1nccc(-c2cccnc2)n1 [Imatinib]	no synergy	
CCCCCCCCCCCCCCCCCCOP(=O)([O-])OC1CC[N+](C)(C)CC1 [Perifosine]	no synergy	

From US9095581B2, “Combinations of MEK inhibitors and Raf kinase inhibitors and uses thereof” (Ardea Biosciences, Inc., priority 2008, dated 2015)
